Test system: 299254-011-R-J1-PDC complex spheroid viability
Experiment: Anticancer human tumor 299254-011-R-J1-PDC patient-derived melanoma cell line growth inhibition [POLQ]
Details: for IC50: curve of first compound; for viability, T/C: stronger effect = lower value
Method in brief: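 PDC + HUVEC + MSC complex spheroids; POLQ inhibitors ± partner drugs; top conc. at/near clinical Cmax, else 10 microM (SN-38 1 microM), half-log dilutions; 37 degrees C, 5% CO2.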

[1] = second compound 0.0316 µM, first compound 0.0316 µM
[2] = second compound 0.0316 µM, first compound 0.1 µM
[3] = second compound 0.0316 µM, first compound 0.316 µM
[4] = second compound 0.0316 µM, first compound 1 µM
[5] = second compound 0.0316 µM, first compound 3.16 µM
[6] = second compound 0.0316 µM, first compound 10 µM
[7] = second compound 0.1 µM, first compound 0.0316 µM
[8] = second compound 0.1 µM, first compound 0.1 µM
[9] = second compound 0.1 µM, first compound 0.316 µM
[10] = second compound 0.1 µM, first compound 1 µM
[11] = second compound 0.1 µM, first compound 3.16 µM
[12] = second compound 0.1 µM, first compound 10 µM
[13] = second compound 0.316 µM, first compound 0.0316 µM
[14] = second compound 0.316 µM, first compound 0.1 µM
[15] = second compound 0.316 µM, first compound 0.316 µM
[16] = second compound 0.316 µM, first compound 1 µM
[17] = second compound 0.316 µM, first compound 3.16 µM
[18] = second compound 0.316 µM, first compound 10 µM
[19] = second compound 1 µM, first compound 0.0316 µM
[20] = second compound 1 µM, first compound 0.1 µM
[21] = second compound 1 µM, first compound 0.316 µM
[22] = second compound 1 µM, first compound 1 µM
[23] = second compound 1 µM, first compound 3.16 µM
[24] = second compound 1 µM, first compound 10 µM
[25] = second compound 3.16 µM, first compound 0.0316 µM
[26] = second compound 3.16 µM, first compound 0.1 µM
[27] = second compound 3.16 µM, first compound 0.316 µM
[28] = second compound 3.16 µM, first compound 1 µM
[29] = second compound 3.16 µM, first compound 3.16 µM
[30] = second compound 3.16 µM, first compound 10 µM
[31] = second compound 10 µM, first compound 0.0316 µM
[32] = second compound 10 µM, first compound 0.1 µM
[33] = second compound 10 µM, first compound 0.316 µM
[34] = second compound 10 µM, first compound 1 µM
[35] = second compound 10 µM, first compound 3.16 µM
[36] = second compound 10 µM, first compound 10 µM
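Further: spheroids exposed to drugs for one week before measurement.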
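Wherever viability, T/C is given: percent viability relative to DMSO vehicle control taken as 100%.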

## COc1ccc([C@@H](O)c2cc(-c3ncnc4cc(N5CCOCC5)ccc34)c(F)cc2Cl)nn1 + Cc1cccc(N(C)C(=O)C2C(O)CCN2c2nc(C)cc(C(F)(F)F)c2C#N)c1
Second compound 0.0316 µM
  IC50: > 10 µM
Second compound 0.1 µM
  IC50: > 10 µM
Second compound 0.316 µM
  IC50: 8.36 µM
Second compound 1 µM
  IC50: 8.8 µM
Second compound 3.16 µM
  IC50: 6.8 µM
Second compound 10 µM
  IC50: 5.75 µM
[1]
  viability, T/C: 105%
[2]
  viability, T/C: 102%
[3]
  viability, T/C: 96.7%
[4]
  viability, T/C: 99%
[5]
  viability, T/C: 87.9%
[6]
  viability, T/C: 49.6%
[7]
  viability, T/C: 90.1%
[8]
  viability, T/C: 89.2%
[9]
  viability, T/C: 112%
[10]
  viability, T/C: 92.5%
[11]
  viability, T/C: 95.9%
[12]
  viability, T/C: 53.4%
[13]
  viability, T/C: 101%
[14]
  viability, T/C: 108%
[15]
  viability, T/C: 97.9%
[16]
  viability, T/C: 86.2%
[17]
  viability, T/C: 82.1%
[18]
  viability, T/C: 43.6%
[19]
  viability, T/C: 108%
[20]
  viability, T/C: 97.6%
[21]
  viability, T/C: 104%
[22]
  viability, T/C: 111%
[23]
  viability, T/C: 82.6%
[24]
  viability, T/C: 46%
[25]
  viability, T/C: 102%
[26]
  viability, T/C: 102%
[27]
  viability, T/C: 100%
[28]
  viability, T/C: 90.2%
[29]
  viability, T/C: 77.8%
[30]
  viability, T/C: 36.5%
[31]
  viability, T/C: 94.6%
[32]
  viability, T/C: 82.8%
[33]
  viability, T/C: 109%
[34]
  viability, T/C: 88.5%
[35]
  viability, T/C: 66%
[36]
  viability, T/C: 35.3%

## CC1COCCN1c1cc(C2(O)CC3CCC(C2)O3)c2cnn(-c3ccn[nH]3)c2n1 (centres undefined) + Cc1cccc(N(C)C(=O)C2C(O)CCN2c2nc(C)cc(C(F)(F)F)c2C#N)c1
Second compound 0.0316 µM
  IC50: 0.182 µM
Second compound 0.1 µM
  IC50: 0.224 µM
Second compound 0.316 µM
  IC50: 0.234 µM
Second compound 1 µM
  IC50: 0.153 µM
Second compound 3.16 µM
  IC50: 0.169 µM
Second compound 10 µM
  IC50: 0.0815 µM
[1]
  viability, T/C: 76.1%
[2]
  viability, T/C: 65.7%
[3]
  viability, T/C: 35.2%
[4]
  viability, T/C: 21.1%
[5]
  viability, T/C: 17.5%
[6]
  viability, T/C: 10.6%
[7]
  viability, T/C: 93.9%
[8]
  viability, T/C: 69.5%
[9]
  viability, T/C: 39.1%
[10]
  viability, T/C: 27.4%
[11]
  viability, T/C: 17.4%
[12]
  viability, T/C: 9.48%
[13]
  viability, T/C: 81.4%
[14]
  viability, T/C: 64.7%
[15]
  viability, T/C: 46.5%
[16]
  viability, T/C: 22.8%
[17]
  viability, T/C: 18.6%
[18]
  viability, T/C: 7.95%
[19]
  viability, T/C: 99.5%
[20]
  viability, T/C: 56.8%
[21]
  viability, T/C: 36%
[22]
  viability, T/C: 24.1%
[23]
  viability, T/C: 15.5%
[24]
  viability, T/C: 10.2%
[25]
  viability, T/C: 97.1%
[26]
  viability, T/C: 61.8%
[27]
  viability, T/C: 35.5%
[28]
  viability, T/C: 22.1%
[29]
  viability, T/C: 14.2%
[30]
  viability, T/C: 10.6%
[31]
  viability, T/C: 73.5%
[32]
  viability, T/C: 44.5%
[33]
  viability, T/C: 27.2%
[34]
  viability, T/C: 20.2%
[35]
  viability, T/C: 14.2%
[36]
  viability, T/C: 9.04%
